Reference: patent publication US20250041264A1, “METHOD FOR TREATING DIABETES BY USING ANTRODIA CAMPHORATA COMPOUND” (Lantyng Biotechnology Corp., priority 2023, published 2025)
“Also recorded” adds a separate entry of the source.

How the values were obtained:
Type 2 Diabetic Mice [1] = test: ALT and AST biochemical analysis in blood (liver function); format: in vivo; conditions: later stage of treatment (4 weeks), Hitachi 7080 blood biochemical analyzer
Procedure: Mice were adapted to feed water and food arbitrarily every week, and after one week, they were fed in groups from the commercial feed 1320 (containing 11% fat) purchased from EJOY2 CORP. (New Taipei City, Taiwan) and D12451 (containing 45% high-fat feed) purchased from MEDGENE CO., LTD. (Taichung, Taiwan), induced for 12 weeks.
On the last day of the experiment, all animals (except for unplanned deaths) were fasted for 20 hours at the National Laboratory Animal Center and euthanized with pure carbon dioxide, followed by necropsy, organ weight (liver) and gross examination, including evaluation of liver and pancreas. Most lesions of animals were recorded at the time of final sacrifice, including scheduled euthanasia and unscheduled deaths. […]

Type 2 Diabetic Mice [2] = test: Oral glucose tolerance test (OGTT), final week (16th week), high-fat-diet type 2 diabetic mice; format: in vivo, mice C57BL/6JNarl; conditions: for average blood sugar at 120 minutes (OGTT): n=6, 120 minutes
Procedure: This experiment uses four-week-old male mice C57BL/6JNarl from National Laboratory Animal Center (Taipei, Taiwan), and they were bred with 12 hours of light/dark cycle under the environment of 23° C.±2° C. Mice were adapted to feed water and food arbitrarily every week, and after one week, they were fed in groups from the commercial feed 1320 (containing 11% fat) purchased from EJOY2 CORP. (New Taipei City, Taiwan) and D12451 (containing 45% high-fat feed) purchased from […] CO., LTD. (Taichung, Taiwan), induced for 12 weeks. During the experiment, the body weight of the mice and the fasting blood sugar value were measured every week and their changes were recorded. The mean±3SD of fasting blood sugar in mice was calculated. If the fasting blood sugar value exceeds the mean±3SD of the normal diet group, tube feeding administration would be started for 4 weeks, and blood sugar tolerance would be tested by tail vein blood collection in the last week of the experiment. […] Referring to FIGS. 1-2, they show the test results of oral glucose tolerance test (OGTT), respectively. Group A (NFD), Group B (NFD+5), Group C (NFD+20), Group D (HFD), Group E (HFD+5), Group F (HFD+10), Group G (HFD+20), Group H (Glibenclamide). NFD refers to normal fat diet, HFD refers to high fat diet, and Glibenclamide is an oral hypoglycemic drug that belongs to type 2 (non-insulin dependent) diabetic patients.

Type 2 Diabetic Mice [3] = test: Low-density lipoprotein (LDL) detection; format: in vivo, mice C57BL/6JNarl; conditions: HFD+5 group (SY1 5 mg/kg) compared with Western medicine group and HFD+10

| SMILES | liver function index (AST, ALT in blood) (Type 2 Diabetic Mice [1]) | fasting blood sugar when no sugar water was fed (OGTT, 16th week) (Type 2 Diabetic Mice [2]; HFD, Glibenclamide 5 mg/kg, after 4 weeks of drug treatment) | effect on lowering blood sugar in the later stage of treatment (Type 2 Diabetic Mice [2]; HFD, Glibenclamide 5 mg/kg, after 4 weeks of drug treatment, compared with SY1) | hypoglycemic effect compared with other groups (OGTT) (Type 2 Diabetic Mice [2]; HFD+5 group (SY1 5 mg/kg) versus HFD+10, HFD+20 and Glibenclamide groups, 5 mg/kg) | average blood sugar at 120 minutes (OGTT) (Type 2 Diabetic Mice [2]; HFD+5 group (high fat diet, SY1 5 mg/kg, tube feeding 4 weeks)) | effect on lowering blood sugar 30 minutes after feeding sugar water (OGTT) (Type 2 Diabetic Mice [2]; HFD+5 low-dose group (SY1 5 mg/kg)) | average blood sugar at 120 minutes (OGTT) (Type 2 Diabetic Mice [2]; HFD+10 group (high fat diet, SY1 10 mg/kg, tube feeding 4 weeks)) | effect on lowering blood sugar 30 minutes after feeding sugar water (OGTT) (Type 2 Diabetic Mice [2]; HFD+10 middle-dose group (SY1 10 mg/kg)) | effect on lowering LDL (Type 2 Diabetic Mice [3]) |
| --- | --- | --- | --- | --- | --- | --- | --- | --- | --- |
| COc1ccc(Cl)cc1C(=O)NCCc1ccc(S(=O)(=O)NC(=O)NC2CCCCC2)cc1 [Glibenclamide, reference compound] | increased and reached a significant difference | higher fasting blood sugar increase than any other group | worse than that of SY1 | – | – | – | – | – | – |
| COc1cc(C)c(OC)c2c1OCO2 [SY1, 4,7-dimethoxy-5-methyl-1,3-benzodioxole] | this phenomenon was not seen | – | – | equivalent to that of the HFD+10 group; also recorded: more obvious than the high-dose HFD+20 and hypoglycemic drug Glibenclamide group | 155.83 | obvious effect on lowering blood sugar | 155.33 | obvious effect on lowering blood sugar | not much different from that of the Western medicine group; also recorded: better than HFD+10 |
